From patent US20110280913A1, “Methods and Compositions for Delivering Therapeutic Agents in the Treatment of B-Cell Related Disorders” (THE OHIO STATE UNIVERSITY, priority 2008, published 2011)

How the values were obtained:
[1] = system: CD52; experiment: Immunophenotyping (flow cytometry) of CD52 on CLL cells; assay type: cell-based, human; settings: 0.5 μM, vs vehicle, data not shown
Description: Immunophenotyping was performed to determine the percentage and mean fluorescence intensity of CD20, CD19, CD5, CD23, CD38, CD3, and CD52 on CLL cells relative to a specific isotype control. Cells (10^6) were washed in PBS, stained with fluorochrome-labeled antibodies at 4° C., then rinsed in PBS and analyzed by flow cytometry (EPICS-XL; Beckman Coulter, Fullerton, Calif.). A total of 10,000 events were collected and analyzed using Windows Multiple Document Interface for Flow Cytometry (WinMDI). CD20, CD19, CD3, CD5, CD23, and CD38 antibodies were obtained from BD Biosciences (San Jose, Calif.), and CD52 antibody was obtained from Serotec (Raleigh, N.C.).

[2] = system: CLL cells; experiment: ADCC, 4-hour 51Cr-release assay; assay type: cell-based, human
Description: (§1) For ADCC experiments, CD56^+ and CD19^+ cells were negatively purified from whole blood obtained from either healthy volunteers or CLL subjects by magnetic-activated cell sorting according to the manufacturer's recommendations (MiniMACS; Miltenyi Biotec, Auburn, Calif.). The purity of enriched populations was always greater than 95% of the total yield as detected by CD19 and CD3 staining.
ADCC activity was determined by standard 4-hour ^51Cr-release assay. ^51Cr-labeled target cells (10^5 CLL cells/mL) were incubated with media alone or in the presence of various antibodies (10 μg/mL) at 37° C. for 30 minutes. Unbound antibody was washed off and the cells plated at 10^4 cells/well. Effector cells (natural killer [NK] cells from healthy donors or CLL subjects) were then added to the plates at indicated effector-to-target (E:T) ratios. After a 4-hour incubation, supernatants were removed and measured using a gamma counter. The percentage of specific cell lysis was determined by the equation: % lysis=100×(ER−SR)/(MR−SR), where ER, SR, and MR represent experimental, spontaneous, and maximum release, respectively. Data were normalized to the untreated control.

[3] = system: B-cell lymphoma cell lines; settings: cited from earlier work
[4] = system: CLL cells; experiment: Immunoliposome FAM-ODN uptake studies; assay type: cell-based, human
Description: An ethanol dilution method was modified to prepare the FAM-ODN-loaded immunoliposomes.^25 Briefly, protamine sulfate in citric acid (20 mM, pH 4) was mixed with lipids (DC-Chol/Egg-PC/PEG-DSPE [molar ratio]=28.0:70.0:2.0) at a mass ratio of lipids:protamine=12.5:0.3, followed by addition of ODN in citric acid (20 mM, pH 4) at ODN/lipids/protamine (weight ratio)=1:12.5:0.3. The complexes were then dialyzed against citric acid (20 mM, pH 4) for 1 hour and then further dialyzed against N-2-hydroxyethylpiperazine-N′-2-ethanesulfonic acid-buffered saline (145 mM NaCl, 20 mM N-2-hydroxyethylpiperazine-N′-2-ethanesulfonic acid, pH 7.4) overnight, using a DispoDialyzer (Spectrum Labs, Rancho Dominguez, Calif.) with a molecular weight cutoff of 10,000 Da. Liposome size distribution was analyzed by dynamic light scattering on a NICOMP Particle Sizer Model 370 (Particle Sizing Systems, Santa Barbara, Calif.).
A postinsertion method was adopted to incorporate antibody ligands into preformed liposomes containing FAM-ODN. In this method, rituximab, trastuzumab (anti-Her2), or alemtuzumab (anti-CD52) was incubated with 20× Traut reagent (2 hours at room temperature) to yield sulfhydryl-modified antibodies. The anti-CD20—sulfhydryl was then incubated with micelles of Mal-PEG-DSPE at a molar ratio of 1:10 and then incubated with FAM-ODN loaded liposomes for 1 hour at 37° C. Targeted liposomes with antibody-PEG-DSPE-to-lipid ratios of 1:1000 ([…]) were thus prepared.
CLL cells were incubated at 10^6 cells/mL for 1 hour at 37° C. with rituximab-, trastuzumab-, or alemtuzumab-coated immunoliposome-FAM-ODN (CODN=1.0 μM) and washed twice in PBS. Cells were kept in culture in RPMI 10% fetal bovine serum for an additional 1, 4, and 24 hours, respectively, in the presence of either 0.5 μM lenalidomide or vehicle control. […] Cells were visualized on a Nikon fluorescence microscope (magnification ×200).
The inventors herein used a FAM-ODN formulated into rituximab-coated immunoliposomes. […] Cells were visualized on a Nikon fluorescence microscope (magnification, ×200).

[5] = system: NK cells; experiment: CD56 and CD16 surface expression on purified NK cells (flow); assay type: cell-based, human; settings: lenalidomide 72 hours
Description: FIG. 4B: Lenalidomide treatment increases percentage of CD56+/[…] cells. Negatively selected NK cells were incubated with Lenalidomide (0.5 μM) or vehicle control. CD56 and CD16 surface expression was analyzed by flow after 72 h of treatment. The graphs show, respectively, percentage change CD56+/CD16+ (left panel, N=12, p<0.01) and CD56−/CD16+ (right panel, N=12, p<0.005) double positive cells.
as §1

[6] = rituximab-coated immunoliposome-FAM-ODN, 0.5 μM lenalidomide

Nc1cccc2c1CN(C1CCC(=O)NC1=O)C2=O (centres unmarked) [lenalidomide]
CD52 expression on CLL cells [1]: no changes | rituximab-mediated ADCC ([2]; cotreatment of autologous NK cells and primary CLL cells, 0.5 μM, 72 hours, vs NK-only controls, N=2, P=0.02): diminished | rituximab-mediated ADCC ([2]; lenalidomide-pretreated CLL B cells, allogeneic NK cells, N=5, P<0.05): decrease | rituximab-mediated ADCC ([2]; lenalidomide-pretreated CLL B cells, autologous NK cells, N=2, P<0.05): decrease | rituximab-mediated ADCC against target CLL subject cells ([2]; lenalidomide-treated NK cells from a healthy donor, N=4, P=0.009): overall enhancement | CD20 surface antigen expression [3]: without affecting | internalization of fluorochrome-labeled ODN from rituximab-coated immunoliposomes ([4]; 0.5 μM lenalidomide after 1 h immunoliposome-FAM-ODN (1.0 μM), N=3): enhanced internalization | earliest time of enhanced ODN internalization [4, 6]: 1 h | time of maximum effect on ODN internalization [4, 6]: 24 h | percentage of CDC16+/CD56− cells ([5]; N=12, P<0.005 (vehicle 35% ±13%)): 20% ±11% | percentage of CD16+/CD56+ cells ([5]; N=12, P<0.01 (vehicle 18% ±10%)): 31% ±14%
